Reference: patent publication US9272047B2, “Use of biological surfactant as anti-inflammatory agent and tissue preservative solution” (Shaperon Inc., priority 2007, dated 2016)
“Also recorded” adds a separate entry of the source.

What was measured:
[1] = system: ischemia-reperfusion renal injury; assay: Ischemia-reperfusion renal injury model, organ preservative solution additive; format: in vivo, Sprague-Dawley rat; settings: 0.5 mg/ml in HTK solution
Method: The effect of sodium glycocholate to inflammatory response and renal function in an ischemia-reperfusion renal injury model, was evaluated. Five Sprague-Dawley (SD) male rats of 6 weeks age were used per each group, and foods and waters were not supplied to all the rats from 1 day before the experiment. The rats were anesthetized by the administration of 1 mg avertin (tribromoethanol/amyl hydrate)/100 g rat to the abdomen of the rats, and then laparotomized. All the blood flow to a left kidney was blocked by clamping the aorta and vena cava using vascular clamps. Before injecting the organ preservative solution, a vein of the left kidney was penetrated to minimize physical damage of the kidney due to the preservative solution pressure. Then, after histidine-tyroptophan-ketoglutarate (HTK) or a mixture solution of HTK and 0.5 mg/ml of sodium glycocholate was injected, at 4 ml/rat, into the vein, the damaged part of the vein was sutured by using 10-0 suture. After 30 min maintenance of the above state, the vascular clamps were removed and the laparotomized part was sutured. […] The concentration of IL-6 in the serum was measured by a enzyme-linked immunosorbent assay, and the concentrations of blood urea nitrogen (BUN), creatinine (Cre) and aspartate aminotransferase (AST) in the plasma were measured by an automated analyzer.

[2] = system: interaction between fluorescein-labeled E. coli LPS and a CHO cell; assay: Inhibition of the interaction between fluorescein (BODIPY)-labeled E. coli LPS and CHO cells, flow cytometry; format: cell-based, Chinese hamster; settings: CHO cells, 7-AAD(−) living cells
Method: Boron dipyrromethene difluoride (BODIPY), a fluorescein, labeled E. coli LPS and CHO cells were used. BODIPY-labeled LPS was reacted with sodium glycocholate in a glass tube at 37° C. for 14 hours. 2×10^5 CHO cells mixed with the reacting solution were plated per well in a 96-well plate, and then incubated at 37° C. for 14 hours. The incubated solution was stained with 7-amino-actinomycin D (7-AAD) and then analyzed by a flow cytometer. The analysis was performed at least twice per each treatment group and the obtained data were statistically processed by t-test. The result was P<0.05 in comparison with the experimental group in which CHO cells were treated with only BODIPY-LPS.
7-AAD(−) cells were selected in order to analyze living cells. […] Therefore, it could be realized that Inflammatory inhibition efficacy of sodium glycocholate shown in the LPS-stimulated inflammatory response was due to the blocking of the interaction between LPS and cells by the action of sodium glycocholate.

[3] = system: LPS-administered C57BL/6 mice; assay: Protection in LPS mouse model of sepsis (survival); format: in vivo, C57BL/6 mouse; settings: for survival rate of the mice: 20 mg/kg LPS into abdomen
Method: In order to assay the neutralizing capacity of sodium glycocholate to LPS, three C57BL/6 mice of 6 weeks age were used per each group. 20 mg/kg and 10 mg/kg of LPS were administered into abdomen of the mouse in order to measure LD50 of LPS. It was observed that 20 mg/kg of LPS is the best optimal concentration for the test of protection test (FIG. 16).
The […] neutralizing capacity of sodium glycocholate to LPS was assayed. The survival rate was measured after 20 mg/kg of LPS was administered into the abdomen of mice and then 12.5 mg/kg of sodium glycocholate, and 20 mg/kg of LPS and 50 mg/kg of sodium glycocholate respectively was administered twice into the abdomen of mice, respectively.

[4] = system: dendritic cell-mediated T cells; assay: Cytotoxicity to dendritic cell-mediated T cells (7AAD, FACS); format: cell-based, mouse
Method: (§1) The cytotoxicity of sodium glycocholate to the CHO cells, dendritic cells, T cells which were used in the above Examples was assayed. FACS analysis was performed after staining with 7AAD. First, sodium glycocholate was kept in vitro for 1 hour at 37° C., and then mixed with cells. CHO cells or dendritic cells were incubated for 14 hours at 37° C., and T cells which were mixed with 14 hour-incubated dendritic cells, were incubated for 4 days. Then, each cell was stained with 7AAD and cell analysis were carried out by using a flow cytometer.

dendritic cells [5] = assay: In vitro proinflammatory cytokine generation by E. coli LPS, dendritic cells (ELISA); format: cell-based, mouse; settings: LPS stimulation
Method: In order to assay the effect of sodium glycocholate on the generation of proinflammatory cytokines induced by E. coli LPS, dendritic cells were prepared in the same way as Example 3, and macrophages were separated from the abdomen of C57BL/6 mouse. Thereafter, sodium glycocholate and LPS were reacted in vitro for 1 hour at 37° C., and then mixed with the cells. Each cell was stimulated for 14 hours at 37° C., and then supernatant fluid was separated.
The concentrations of TNF-α and interleukin-12p40 in the separated supernatant fluid was measured by an enzyme-linked immunoabsorbent assay (ELISA).
Each group was treated and assayed at least twice, and the results were statistically analyzed through t-test. The results were p<0.05 compared with the experimental groups treated by only LPS.

Balb/c mice = assay: Acute toxicity in mice, single administration into abdomen or tail vein; format: in vivo
Method: Acute toxicity was measured by using five Balb/c mice of 6 weeks age per group, which were once administered with sodium glycocholate, at different sodium glycocholate concentrations, into the abdomen and tail vein. […] However, 250 mg/kg of sodium glycocholate at which the above-mentioned effects of sodium glycocholate, and the sodium glycocholate concentration of below 250 mg/kg, 100 % of the mice survived (FIGS. 32A-32B). Also, 100 % of the mice survived at the sodium glycocholate concentration of not exceeding 150 mg/kg in the experiment where sodium glycocholate of different concentrations was adiministered into tail vein of mice (FIG. 33).

dendritic cells [6] = assay: Inhibition of LPS-induced nitric oxide generation, dendritic cells (Griess); format: cell-based, mouse; settings: dendritic cells stimulated by LPS, 18 hours
Method: Then, the resulting dendritic cell mixtures were plated, by […] each, in a 96-well plate. Griss reagents were added to each well, and the 96-well plate was covered with foils and kept reacting for 15 min at room temperature. Absorbance at 540 nm was measured using an ELISA reader. Macrophages separated from abdomen were also treated with sodium glycocholate, sodium taurochenodeoxycholate and sodium taurodeoxycholate, respectively, and then stimulated with LPS for 18 hours. Thereafter, the same experiments as the dentritic cells were performed to the macrophages.

CHO cells = assay: Cytotoxicity to CHO cells (7AAD, FACS); format: cell-based, Chinese hamster
Method: as §1
The same procedures as for FIG. 25A were carried out in FIGS. 26A-26C-Figs. 31A-31B and cytotoxicity experiments were performed on three groups of bile acid derivatives which were classified based on their solubility in different solvents.

SMILES: C[C@H](CCC(=O)NCC(=O)[O-])[C@H]1CC[C@H]2[C@@H]3[C@H](O)C[C@@H]4C[C@H](O)CC[C@]4(C)[C@H]3C[C@H](O)[C@]12C.[Na+] [sodium glycocholate]
- ischemia-reperfusion renal injury [1]: inhibited
- interaction between BODIPY-LPS and the cell [2]: inhibited according to the increase of the concentration
- survival rate of the mice ([3]; 12.5 mg/kg administered twice (1 hour and 6 hours after LPS)): 40%
- survival rate of the mice ([3]; 50 mg/kg administered twice (1 hour and 6 hours after LPS)): 60%
- mortality of mice ([3]; dose of 12.5 mg/kg mouse): significantly reduced
- cytotoxicity ([4]; 1 mg/ml): no significant cytotoxicity; also recorded: dose not have cytotoxicity
- 7AAD(+) increase compared with the negative control group ([4]; 4 days): 2-4%
- inhibition of generation of TNF-α (dendritic cells [5]; 0.5 mg/ml): 70.2±2.3%
- inhibition of generation of interleukine-12p40 (dendritic cells [5]; 0.5 mg/ml): 4.7±3.1%
- inhibition of generation of TNF-α (dendritic cells [5]; 1 mg/ml): 101.0±0.2%
- inhibition of generation of interleukine-12p40 (dendritic cells [5]; 1 mg/ml): 106.6±1.3%
- mice survived (Balb/c mice; abdominal administration, 250 mg/kg and below): 100%
- concentration (dose) at which toxicity was shown (Balb/c mice; abdominal administration, single dose): > 500 mg/kg
- adverse effect (Balb/c mice; mouse test, dose of 250 mg/kg mouse): no adverse effect
- mice survived (Balb/c mice; tail vein administration, not exceeding 150 mg/kg): 100%
- generation of NO (dendritic cells [6]): inhibited
- cytotoxicity (CHO cells; 1 mg/ml): no significant cytotoxicity; also recorded: dose not have cytotoxicity
- 7AAD(+) increase compared with the negative control group (CHO cells; 14 hours): 2-4%
